In PubChem BioAssay (NCI) one finds GI50 and TGI data, which are given here for 11 molecules.

Where “and” joins values, the source holds several entries; their conditions need not be identical. Identical values can stand only once.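 Results reflect a 48-hour exposure of cells in 96-well plates to compound at five concentrations. GI50 = concentration required for 50% inhibition of growth. TGI: total growth inhibition.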 Bounds are passed on as bounds.

Holding throughout (assay): growth of human tumour cells (NCI), 48 h
In assay [1] the test system is T-47D breast.
In assay [2] the test system is EKVX NSCLC.
Assay [3] deals with MDA-MB-231 breast.
Assay [4] has as its system MCF7 breast.
Assay [5] has as its system UACC-62 melanoma.
The test system of assay [6] is UO-31 renal.
Assay [7] deals with BT-549 breast.
In assay [8] the test system is HT29 colon.

In the case of `CCCCOC(=O)c1ccc(N)cc1`, the GI50 in assay [1] was 47.6 µM; in assay [2], 39.7 µM; in assay [3] it was > 100 µM; in assay [4], 74.6 µM; in assay [5], 17.9 µM; in assay [6] it was 8.74 µM. Further, the GI50 is 77.6 µM in assay [7] and > 100 µM in assay [8]. In addition, the TGI in assay [1], in assay [2], in assay [3], in assay [4], in assay [5] and in assay [6] was > 100 µM throughout. In addition, the TGI in assay [7] and in assay [8] was > 100 µM throughout.
As for `Nc1c(C(=O)Nc2ccccc2)sc2nc3c(cc12)CCCCC3`, the GI50 is 0.834 µM in assay [1]; 1.62 µM in assay [3]; 0.332 µM in assay [4]; 0.41 µM in assay [5]; 0.917 µM in assay [6]; 0.819 µM in assay [7]. The TGI in assay [1] is 80.6 µM; in assay [3], 42 µM; in assay [4], > 100 µM; in assay [5], 19.4 µM; in assay [6], > 100 µM; in assay [7], 20.1 µM.
On to `COc1cc2c(c(OC)c1OC)-c1ccc(O)cc1[C@@H](NC(C)=O)CC2`, for which the GI50 in assay [1] was 0.0495 µM; in assay [2], 0.0577 µM; in assay [3], 0.0689 µM; in assay [4], 0.0376 µM; in assay [5] it was 0.0582 µM; in assay [6] it was 0.279 µM. Besides, the GI50 is 0.152 µM in assay [7] and 0.0339 µM in assay [8]. In addition, the TGI in assay [1] is > 100 µM; in assay [2] it was > 100 µM; in assay [3] it was > 100 µM; in assay [4], > 100 µM; in assay [5] it was > 100 µM; in assay [6], > 51.2 µM. Besides, the TGI in assay [7] is > 100 µM; in assay [8] it was 0.141 µM.
In the case of `CC1=C2CC(C)(C)/C=C\C(=O)/C(C)=C\C3=C[C@H](C)C[C@]3(O2)C1=O`, the TGI came out at 1.65 µM in assay [1]; 6.15 µM in assay [2]; 9.33 µM in assay [3]; 2.14 µM in assay [4]; 3.37 µM in assay [5]; 2.61 µM in assay [6]. For the same molecule, the TGI in assay [7] was 1.5 µM; in assay [8] it was 2.76 µM.
On to `CCCCCCCCCCCCCCCC1=NCCN1`, for which the GI50 was 2.14 µM in assay [1]; 1.86 µM in assay [2]; 2.23 µM in assay [3]; 2.3 µM in assay [5]; 1.65 µM in assay [6]; 6.39 µM in assay [7]. The GI50 in assay [8] was 1.87 µM. The TGI in assay [1] was found to be 5.65 µM; in assay [2] it was 4.39 µM; in assay [3] it was 4.68 µM; in assay [5], 4.94 µM; in assay [6], 3.47 µM; in assay [7], 29.7 µM. This molecule returned a TGI in assay [8] of 4.45 µM.
As to `COc1ccc2c(c1)c(-c1nc(-c3c[nH]c4ncccc34)cs1)cn2CCCN1CCCCC1`, the GI50 in assay [2] is 1.44 µM; in assay [3] it was 1.66 µM; in assay [4], 1.43 µM; in assay [5], 1.87 µM; in assay [6], 1.38 µM; in assay [7] it was 3.28 µM. Besides, the GI50 in assay [8] was 1.81 µM. In addition, the TGI in assay [2] came out at 2.9 µM; in assay [3] it was 3.27 µM; in assay [4], 2.9 µM; in assay [5], 3.53 µM; in assay [6], 2.83 µM; in assay [7], 12.7 µM. In assay [8], the TGI turned out to be 3.53 µM.
For `O=C1C(=C(C(F)(F)Cl)C(F)(F)Cl)C2CCC1C2` (centres undefined), the TGI in assay [1] was 4.58 µM; in assay [2], > 10 µM; in assay [3], 3.07 µM; in assay [4], > 6.52 µM; in assay [5] it was 4.4 µM; in assay [6], > 6.47 µM. Further, the TGI was found to be 4 µM in assay [7] and 5.57 µM in assay [8].
Take `Oc1ccc(O)c(-c2cn3c(n2)SCC3)c1`: the GI50 was 17.5 µM in assay [1]; 19.5 µM in assay [2]; 11.7 µM in assay [3]; 26.8 µM in assay [4]; 11.2 µM in assay [5]; 20.7 µM in assay [6]. For the same molecule, the GI50 in assay [7] was 11.8 µM. In addition, the TGI in assay [1] is 42.2 µM; in assay [2], 37.3 µM; in assay [3], 26.5 µM; in assay [4], > 100 µM; in assay [5], 24.7 µM; in assay [6] it was > 100 µM. Further, the TGI in assay [7] was 25.7 µM.
In the case of `NCCc1ccc(S(=O)(=O)F)cc1`, the GI50 in assay [1] is > 100 µM; in assay [2] it was 43.3 µM; in assay [4], 63.5 µM; in assay [6] it was > 100 µM; in assay [7] it was 27.9 µM; in assay [8], > 100 µM. Also, the TGI in assay [1], in assay [2], in assay [4], in assay [6], in assay [7] and in assay [8] was > 100 µM each time.
Take `Cc1ccc(Nc2nccc(N(C)c3ccc4c(C)n(C)nc4c3)n2)cc1S(N)(=O)=O`: the GI50 in assay [1] was 3.91 µM and 1.58 µM and 3.98 µM; in assay [2], 3.22 µM and 4.11 µM and 15.2 µM; in assay [3], 3.72 µM and 1.44 µM and 5.88 µM; in assay [4], 4.06 µM and 3.1 µM and 6.69 µM; in assay [6], 3.13 µM and 0.539 µM and 4.67 µM; in assay [7], 1.7 µM and 1.46 µM and 5.02 µM. In addition, the GI50 in assay [8] is 4.03 µM and 0.49 µM and 4.68 µM. The TGI in assay [2] was > 100 µM; in assay [3], > 100 µM; in assay [4], > 100 µM; in assay [6], > 100 µM; in assay [7] it was 7.66 µM and > 10 µM and 36.6 µM; in assay [8], > 100 µM.
Consider `COc1cc(C2CC(c3cccc(Nc4ccnc5cc(Cl)ccc45)c3)=NN2c2ccc(Cl)cc2)cc(OC)c1OC` (centres undefined), for which the GI50 in assay [1] was 0.687 µM; in assay [3], 2.97 µM; in assay [4], 2.31 µM; in assay [5] it was 0.311 µM; in assay [6] it was 0.489 µM; in assay [7], 4.63 µM. Moreover, the TGI in assay [1] was > 100 µM; in assay [3], > 100 µM; in assay [4] it was > 100 µM; in assay [5], 19.9 µM; in assay [6], 15.3 µM; in assay [7], 78.6 µM.
